Measurements published in US11903951B2, “Nasal pharmaceutical compositions with a porous excipient” (M et P Pharma AG, priority 2016, dated 2024).

Assays:
[1] = Solubility of testosterone in different oils; assay type: physicochemical
[2] = Time for complete dissolving of the maximally soluble amount of testosterone in different oils; settings: vortex mixer and shaker at 1000 rpm
Description: The adsorption ability of the SYLOID® particles was investigated by mixing SYLOID® 244FP, XDP3050, and XDP6035 with castor oil, linalool, TRANSCUTOL®, and CAPRYOL™. The maximally soluble amount of testosterone (under the conditions tested) was dissolved in 2.5 g of each oil using a vortex mixer and shaker at 1000 rpm.

With `C[C@]12CC[C@H]3[C@@H](CCC4=CC(=O)CC[C@@]43C)[C@@H]1CC[C@@H]2O` [testosterone] the Solubility from oil ([1]; CAPRYOL PGMC) was 6.0%, the Solubility from oil ([1]; TRANSCUTOL HP) was 6.5% and the Solubility from oil ([1]; linalool) was 12.5%. For the same compound, the “Time of solubility (complete dissolving)” value ([2]; 0.10 g testosterone in 2.5 g castor oil) was >300 min, the “Time of solubility (complete dissolving)” value ([2]; 0.15 g testosterone in 2.5 g CAPRYOL) was ~60 min and the “Time of solubility (complete dissolving)” value ([2]; 0.16 g testosterone in 2.5 g TRANSCUTOL) was ~5 min. The “Time of solubility (complete dissolving)” value ([2]; 0.31 g testosterone in 2.5 g linalool) was 15 to 20 min.
